From patent publication US5102667A, “Isoindolone derivatives, their preparation and the pharmaceutical compositions containing them” (Rhone-Poulenc Sante, priority 1989, dated 1992)
Read-outs that look alike come from different tables or passages of the source.

Key:
[1] = analgesic activity (technique of E. Siegmund et al.); type: in vivo
Description: Exp. Biol. Med., 95, 729 (1957).

[2] = test system: substance P receptors of human cells: lymphoblasts of line IM 9; assay: binding of substance P-H^3 on washed homogenates of IM-9 cells; settings: substance P-H^3 1 nM
Procedure: Substance P plays a role in the modulation of immune processes (J. P. McGillis et al., Fed. Proc., 46 (1), 196-199 (1987)). Substance P binds to receptors of human cells in cultures: the lymphoblasts of line IM 9 [D. G. Payan et al., J. of Immunology, 133 (6), 3260-5 (1984)]. The products according to the invention displace substance P at these locations.
Binding substance P--H^3 (concentration 1 nM)
on washed homogenates of IM-9 cells after freezing

[3] = test system: substance P; assay: inhibition of the increase in capillary permeability caused by substance P (technique of A. Saria et al.); type: in vivo; settings: Rattus norvegicus, iv, rats
Description: The study of several isoindolone derivatives of general formula (I) using the technique of A. Saria et al., Arch.

[4] = test system: septide; assay: antagonism of behavioural effects induced by septide administered intrathecally (technique of R. E. Rodriguez et al.); type: in vivo; settings: rats
[5] = test system: septide; assay: antagonism of hypotension induced by septide / substance P (technique of C. A. Maggi et al.); type: in vivo; settings: 0.2 mg/kg i.v./min, for 5 min; rats; i.v. injection of 250 μg of septide
Procedure: The injection of substance P into the animal causes hypotension. The products studied using the technique of C. A. Maggi et al., J. Auton. Pharmac., 7, 11-32 (1987) show an antagonist effect in rats towards this hypotension. In particular, the product of Example 60 administered in a dose of 0.2 mg/kg i.v./min, for 5 min, causes an approximately 50% antagonism of the hypotension induced by an i.v. injection of 250 μg of septide.

N=C(Cc1ccccc1)N1C[C@@H]2C(=O)CCC(c3ccccc3)(c3ccccc3)[C@@H]2C1 (racemic) [Example 4, (3aRS,7aRS)-2-(α-iminophenethyl)-7,7-diphenyl-4-perhydroisoindolone]
ED50 ([1]; po, read-out: ED50): 42 mg/kg

O=C1CCC(c2ccccc2)(c2ccccc2)[C@@H]2CN(C(Cc3ccccc3)=NCc3ccccc3)C[C@H]12 (racemic) [Example 13, (3aRS,7aRS)-2-(α-benzyliminophenethyl)-7,7-diphenyl-4-perhydroisoindolone]
ED50 ([1]; po, read-out: ED50): 19 mg/kg

COc1ccccc1CC(=N)N1C[C@@H]2C(=O)CCC(c3ccccc3)(c3ccccc3)[C@@H]2C1 (racemic) [Example 48, (3aRS,7aRS)-2-[1-imino-2-(2-methoxyphenyl)ethyl]-7,7-diphenyl-4-perhydroisoindolone]
ED50 ([1]; p.o.): 4 mg/kg p.o.

O=C1CCC(c2ccccc2)(c2ccccc2)[C@@H]2CN(C(Cc3ccccc3)=NCc3cccs3)C[C@H]12 (relative stereo) [Example 27]
ED50 ([1]; po, read-out: ED50): 29 mg/kg

COc1ccccc1CC(=O)N1C[C@@H]2C(=O)CCC(c3ccccc3)(c3ccccc3)[C@@H]2C1 [Example 49, (3aR,7aR)-(-)-7,7-diphenyl-2-[(2-methoxyphenyl)acetyl]-4-perhydroisoindolone]
Binding substance P-H^3 (concentration 1 nM) on washed homogenates of IM-9 cells after freezing [2]: 680

COc1ccccc1CC(=N)N1C[C@@H]2C(=O)CCC(c3ccccc3)(c3ccccc3)[C@@H]2C1 [Example 50, (3aR,7aR)-2-[1-imino-2-(2-methoxyphenyl)ethyl]-7,7-diphenyl-4-perhydroisoindolone]
ED50 ([1]; p.o.): 0.3 mg/kg p.o. | ED50 [3]: ~0.05 mg/kg | % inhibition of the behaviour at a dose of 10 mg/kg sc [4]: 50%

CN(C)c1ccccc1CC(=O)N1C[C@@H]2C(=O)CCC(c3ccccc3)(c3ccccc3)[C@@H]2C1 [Example 60, (3aR,7aR)-7,7-diphenyl-2-[2-(2-dimethylaminophenyl)acetyl]-4-perhydroisoindolone]
ED50 ([1]; po, read-out: ED50): 38 mg/kg | ED50 [3]: ~1 mg/kg | % inhibition of the behaviour at a dose of 10 mg/kg sc [4]: 80% | antagonism of the hypotension induced by septide [5]: approximately 50%

COc1ccccc1[C@H](C)C(=O)N1C[C@@H]2C(=O)CCC(c3ccccc3)(c3ccccc3)[C@@H]2C1 [Example 76, (3aR,7aR)-7,7-diphenyl-2-[(S)-2-(2-methoxyphenyl)propionyl]-4-perhydroisoindolone]
Binding substance P-H^3 (concentration 1 nM) on washed homogenates of IM-9 cells after freezing [2]: 315
